# Values joined by “and” are separate entries in the source; they are usually repeats but may differ in a detail not shown here. Equal entries are not always repeated. “Also recorded” adds a separate entry of the source. Structures can show the parent of a compound that is named as a salt.
# Tests used:
# Format in all cases: cell-based, human
# cultured HCECs [1] = assay: Flow cytometry (FACS) of surface CD markers CD44, CD166, CD24, CD26, CD105 of cultured HCECs; E-ratio; settings: for effect on the E-ratio: presence of the agent during culture
# From the text: FIG. 68 is a diagram showing the method to estimate the content of effector (E-ratio) in a cultured cell population by FACS analysis. The gate is set as followings in measurements using PE-Cy7-labeled anti-human CD44 antibodies (BD Biosciences) and setting the Area Scaling Factor of Blue laser of FACS Canto II to 0.75 and voltage of PE-Cy7 to 495. First, fractions A, B, C, and D are set in the dot plot (top row left) where the X axis is CD24 and the Y axis is CD166. At this time, fraction A is CD24 negative and CD166 positive, fraction B is CD24 positive and CD166 positive, fraction C is CD24 negative and CD166 negative, and fraction D is CD24 positive and CD166 negative. The proportion of fraction B when target cells for analysis are 100% is considered the content of non-intended cell C [CD24 positive cell]. […] Further, a separate dot plot where the X axis is CD44 and the Y axis is CD26 is created and fractions a′, b′, c′, and d′ are set as in the diagram on the top row right side. The proportion of fraction B when the target cells of analysis is 100% is the non-intended cell B [CD26 positive cell] content.
# Method of calculating the E-ratio: Typically, fluorescence intensities differ depending on the type of fluorescence of a label or equipment setting. In a measurement under the following condition: PE-Cy7-labeled anti-human CD44 antibody (BD Biosciences) is used and Area Scaling Factor of Blue laser of FACS Canto II is set to 0.75 and the voltage of PE-Cy 7 is set to 495, gates are set as follows: First, fractions A, B, C, and D are set in a dot plot (FIG. 68, top row left side) with X axis as CD24 and Y axis as CD166. At this time, fraction A is CD24 negative and CD166 positive, fraction B is CD24 positive and CD166 positive, fraction C is CD24 negative and CD166 negative, and fraction D is CD24 positive and CD166 negative. The proportion of fraction B, when target cells for analysis is 100%, is considered the content of non-intended cell C [CD24 positive cell]. […] Further, a separate dot plot where the X axis is CD44 and the Y axis is CD26 is created and fractions a′, b′, c′, and d′ are set as in the diagram on the top row right side of FIG. 68. The proportion of fraction B, when the target cell of analysis is 100%, is the non-intended cell B [CD26 positive cell] content (see FIG. 68).
# HCECs were collected from the culture dish by TrypLE Select treatment as described above and suspended at a concentration of 4×10^6 cells/mL in FACS buffer (PBS containing 1% BSA and 0.05% NaN3). An equal volume of antibody solution was added and incubated for 2 hours at 4.degrees. C. The antibody solutions comprised the following: FITC-conjugated anti-human CD26 mAb, PE-conjugated anti-human CD166 mAb, PerCP-Cy5.5 conjugated anti-human CD24 mAb, PE-Cy7-conjugated anti-human CD44 (all from BD Biosciences), and APC-conjugated anti-human CD105 (eBioscience, San Diego, Calif., USA). After washing with FACS buffer, the HCECs were analyzed with FACS Canto II (BD Biosciences).
# cHCECs = assay: Phase contrast microscopy: morphology, cell area distribution, cultured cell density
# From the text: Phase contrast microscope images were taken by an inverted microscope system (CKX41, Olympus, Tokyo, Japan). For the cell area distribution analysis, the cHCECs were washed with PBS (−) three times and the phase contrast images were acquired by a BZ X-700 Microscope system (Keyence, Osaka, Japan). The cell area distributions were quantified by BZ-H3C Hybrid cell count software (Keyence).
# Phase contrast images ware taken by an inverted microscope system (CKX41, Olympus, Tokyo, Japan). For the cell area distribution analysis, the cHCECs were washed with PBS (−) three times and phase contrast images were acquired by a BZ X700 Microscope system (Keyence, Osaka, Japan). The area distributions were quantified by BZ-H3C Hybrid cell count software (Keyence).
# HCECs = assay: Trichostatin A (TSA) treatment of HCECs; settings: medium supplemented with 0.5 .micro.M Trichostatin A
# Method: HCECs with treated with Trichostatin A as follows. The Descemet's membranes with the corneal endothelial cells were stripped from donor corneas and digested at 37.degrees. C. with 1 mg/mL collagenase A (Roche Applied Science, Penzberg, Germany) for 2 hours. The HCECs obtained from a single donor cornea were seeded in one well of a Type I collagen-coated 6-well cell culture plate (Corning Inc., Corning, N.Y., USA). The Trichostatin A-containing medium was prepared with Opti-MEM-I (Life Technologies Corp., Carlsbad, Calif., USA), 8% fetal bovine serum (FBS), 5 ng/mL epidermal growth factor (EGF; Life Technologies), 20 .micro.g/mL ascorbic acid (Sigma-Aldrich Corp.), 200 mg/L calcium chloride (Sigma-Aldrich Corp., St. Louis, Mo., USA), 0.08% chondroitin sulfate (Wako Pure Chemical Industries, Ltd., Osaka, Japan), 50 .micro.g/mL of gentamicin, and 0.5 .micro.M of Trichostatin A. The HCECs were cultured using the Trichostatin A-containing medium at 37.degrees. C. in a humidified atmosphere containing 5% CO2. The culture medium was changed twice a week. The HCECs were subcultured at ratios of 1:3 using 10× TrypLE Select (Life Technologies) for 12 minutes at 37.degrees. C. when they reached confluence. The cells were cultured for 30 days. The HCECs from the second passage were used for observation with a fluorescence microscope.
# cultured HCECs [2] = assay: Centrifugation cell attachment assay: coated Descemet's membrane components and cell suspension vehicles; settings: for minimum concentration necessary for the observed cell binding: coating concentration; for binding / distribution of cultured HCECs in coated wells: U-bottomed 96-well plates coated with the component, 200×g for 2 minutes, Opti-MEM
# Method: Cell attachment to laminins, […], proteoglycans and glycoprotein was tested by the centrifugation cell attachment assay described previously (Friedlander et al., 1998. J. Cell Biol. 107: p 2329) with some modifications. Laminin-521, -511, -411, and -332 were purchased from Veritas (Tokyo, Japan). Perlecan, Agrin, Nidogen-1, TSP-1 and Fibulin 5 were purchased from R&D Systems (Minneapolis, Minn.). Type IV collagen was purchased from BD Biosciences (San Jose, Calif., USA).
# Each well of a U-shaped 96-well Maxisorp plate (Nunc) was coated with 40 .micro.l of laminin, collagen, proteoglycan or glycoprotein solution overnight at 4 degrees Celsius. The wells were washed three times with PBS (−) and blocked with 1% BSA in 0.1 M NaHCO3 (pH 8.0) for 1 hour at room temperature. The cultured HCECs were suspended in Opti-MEM, Opeguard-MA (Senju Pharmaceutical, Osaka, Japan) or BSS-Plus (Alcon Laboratories, Fort Worth, Tex., USA) at a concentration of 1×10^5 cells/mL, and 0.1 mL of the cell suspension was added to each well and incubated for 10 minutes. The plate was then centrifuged at 200×g for 2 minutes. The bright-field Z stack images were captured by a BZ-9000 microscope (Keyence, Osaka, Japan) at 2× objective magnification and omnifocal images were created from these images using BZ-II Analyzer software. In accordance with the description by Friedlander et al (Friedlander et al., 1998. J. Cell Biol. 107: p 2329), the cells were centrifuged into a pellet at the bottom of the well on non-adhesive substrates. As the adhesiveness of the substrate increased, more cells bound to the substrates along the wall of the well. Bond to the substrate is detected in a circular area with a measurable diameter at the bottom or the well. On strongly adhesive substrates, cells were distributed more or less uniformly on the well (Grumet M, Flaccus A, and Margolis R U. J. Cell Biol. 1993; 120:815-824).
# As a method for assessing the attachment ability of HCECs, this Example performed a centrifugation cell attachment assay [Friedlander et al., 1998. J. Cell Biol. 107: p 2329] with some modification (FIG. 36). The cultured HCECs were detached from culture dishes as described in (Materials and Methods) and cell suspension was prepared at a concentration of 1×10^5 cells/ml. 100 .micro.l of the cell suspension was added to each well of the U-bottomed 96-well plates coated with laminin-511, laminin-411, Type IV collagen or other components of Descemet's membrane listed in Table 6. The plate was incubated for 10 minutes at room temperature and then centrifuged at 200×g for 2 minutes. The attached cells were assessed under a BZ-9000 microscope system as described in (Materials and Methods).
# [3] = addition of Y-27632 during the culture for 47 days
compound,measurement,setting,value
"C[C@@H](N)[C@H]1CC[C@H](C(=O)Nc2ccncc2)CC1 [Lot Y-27632, (R)-(+)-trans-(4-pyridyl)-4-(1-aminoethyl)-cyclohexanecarboxamide dihydrochloride monohydrate]",E-ratios,"cultured HCECs [1]; Y-27632 added every three days throughout the entire culture period, TGF-beta signaling not inhibited, seeding density higher than 400 cells/mm^2",≥ 90%
same,"improvement (E-ratio, increase in the proportion of intermediately differentiated corneal endothelial cells)",cultured HCECs [1]; about 1 .micro.M,very little improvement
same,"improvement (E-ratio, increase in the proportion of intermediately differentiated corneal endothelial cells)",cultured HCECs [1]; about 5 .micro.M,little
same,"improvement (E-ratio, increase in the proportion of intermediately differentiated corneal endothelial cells)",cultured HCECs [1]; about 10 .micro.M or more,More of an effect
same,E-Ratio,"cultured HCECs [1]; addition of Y-27632 throughout 35 days of culture, 6th passage",52.3%
same,effect on the E-ratio,cultured HCECs [1],further improved the E-ratio
same,average cell area,cHCECs; [3],216 .micro.m^2
same,cultured cell density,cHCECs; [3],2582 cells/mm^2
"C[S+]([O-])c1ccc(-c2nc(-c3ccc(F)cc3)c(-c3ccncc3)[nH]2)cc1 (centres unmarked) [SB203580, 4-(4-fluorophenyl)-2-(4-methylsulfinylphenyl)-5-(4-pyridyl)-1H-imidazole]",senescent form of cHCEC cultures,"cHCECs; inhibitor added to the entire culture, cultures a5, a1, a2",did not have any senescent form at first glance
CC(/C=C/C(=O)NO)=C\[C@@H](C)C(=O)c1ccc(N(C)C)cc1 [Trichostatin A],effect on the E-ratio,cultured HCECs [1],improved the E-ratio
same,differentiation into mature cHCECs,HCECs,can be promoted to differentiate into mature cHCECs
"Agrin: purchased from R&D Systems, Descemet's membrane component",minimum concentration necessary for the observed cell binding,cultured HCECs [2],400 nM
"Perlecan: purchased from R&D Systems, Descemet's membrane component",minimum concentration necessary for the observed cell binding,cultured HCECs [2],400 nM
"TSP-1: purchased from R&D Systems, Descemet's membrane component",minimum concentration necessary for the observed cell binding,cultured HCECs [2],400 nM
"laminin-332: laminin purchased from Veritas, coating protein",binding / distribution of cultured HCECs in coated wells,cultured HCECs [2],formed a circular pellet
"laminin-411: laminin purchased from Veritas, coating protein",binding / distribution of cultured HCECs in coated wells,cultured HCECs [2],formed a circular pellet
same,minimum concentration necessary for the observed cell binding,cultured HCECs [2],1.25 nM and 2.85 .micro.g/mL
"laminin-511: laminin purchased from Veritas, coating protein",binding / distribution of cultured HCECs in coated wells,cultured HCECs [2],uniformly distributed; also recorded: concentration dependent manner
same,minimum concentration necessary for the observed cell binding,cultured HCECs [2],4 pM and 3 ng/mL
"laminin-521: laminin purchased from Veritas, coating protein",binding / distribution of cultured HCECs in coated wells,cultured HCECs [2],uniformly distributed; also recorded: concentration dependent manner
